Source: patent publication US6534063B1, “Methods for treating pervasive development disorders” (priority 1999, dated 2003)
No end group written: not given here.

Legend:
fecal chymotrypsin level = assay: Fecal Chymotrypsin Test after secretin infusion, 16 autistic children (Experiment 1); type: in vivo; conditions: each of 16 autistic children; approximately one week after first secretin infusion, 1 U/kg IV; compared with pre-secretin levels
Protocol: (§1) In this experiment, 16 children diagnosed as having autism were administered the following Fecal Chymotrypsin Test in accordance with an embodiment of the invention. First, approximately 2 grams of stool were collected from each child and placed in a sterile container (although it is to be understood that any quantity of stool may be collected, as 2 grams of stool is not a required amount). Each stool sample was then analyzed using, e.g., an enzymatic photospectrometry analysis as is known by those skilled in the art, to determine the level of fecal chymotrypsin in the stool. Although the enzymatic photospectrophotometry process is preferred, any suitable conventional method may be used for measuring the fecal chymotrypsin levels. The measured chymotrypsin levels of the 16 autistic children are illustrated in FIG. 13.
After determining the chymotrypsin levels of the stools, each of these levels were compared with threshold chymotrypsin levels to determine if the child was likely to benefit from secretin administration. By way of example, with the fecal chymotrypsin tests of the stool samples being performed at 30° C., normal levels of chymotrypsin are deemed to lie above 8.4 U/gram, whereas pathologically abnormal levels are deemed to lie below 4.2 U/gram. […]

[1] = tested on: children diagnosed as having autism; assay: CARS (Childhood Autism Rating Scale) test pre- and post-secretin (Experiment 1); type: in vivo; conditions: 16 autistic children
Protocol: Upon determining that a given child was likely to benefit from secretin administration based on the results of the fecal chymotrypsin test, the child was administered a CARS (Childhood Autism Rating Scale) test prior to being scheduled for secretin infusion.
For each of the 16 autistic children tested, a preferred secretin infusion process according to the present invention was performed involving the administering of 1 U/kg of body weight of Secretin-Ferring for a period of nine months at intervals of approximately 6 weeks. In addition, another CARS test was administered to each of the 16 autistic children 3 weeks post secretin administration to determine if their autism had changed post infusion.
A preferred secretin infusion process includes the initial step of prepping an arm of the candidate child with an IV injection of saline. A test dose of 1 U of Secretin-Ferring is then administered to the child. Approximately one minute after infusion, the child is examined for signs of allergic reaction including rash, increased heart rate, and increase of blood pressure. […] Subsequently, each child receives a 1 U/kg of body weight infusion of Secretin-Ferring approximately every 6 weeks for 9 months. It is to be understood that any commercially available form of secretin may be used.

[2] = tested on: fecal chymotrypsin (FC) levels; assay: Weekly fecal chymotrypsin test during 6 months of secretin, 37 autistic children (Experiment 2); type: in vivo; conditions: 6 months post-secretin administration; of 37 children, all abnormal pre-secretin
Protocol: as §1
After determining the chymotrypsin levels of the stools, each of these levels were compared with threshold chymotrypsin levels to determine if the child was likely to benefit from secretin administration. By way of example, with the fecal chymotrypsin tests of the stool samples being performed at 30° C., normal levels of chymotrypsin are deemed to lie above 8.4 U/gram, whereas pathologically abnormal levels are deemed to lie below 4.2 U/gram. In addition, chymotrypsin levels between 8.4 U/gram and 4.2 U/gram are considered equivocal, and further testing of the individual's fecal chymotrypsin levels over a period of time should be performed.
A preferred secretin infusion process includes the initial step of prepping an arm of the candidate child with an IV injection of saline. A test dose of 1 U of Secretin-Ferring is then administered to the child. […]
In this experiment, 37 autistic children with abnormal fecal chymotrypsin levels were administered secretin over the course of 6 months using the secretin infusion process described above. Their fecal chymotrypsin (FC) levels were measured weekly using the fecal chymotrypsin test described above.

[3] = tested on: children diagnosed with Autism; conditions: secretin given as diagnostic procedure during upper gastrointestinal endoscopy; cited from earlier work

Q: What does the source list for “secretin (HSDGTFTSELSRLRDSARLQRLLQGLV-NH2; ends and bridges not checked; UniProt P63298 33-59, looked up) [gastrointestinal peptide hormone]”?
A: fecal chymotrypsin level post-secretin administration (fecal chymotrypsin level): increased; CARS component scores (all except fear) ([1]; 3 weeks post infusion): demonstrated improvement; CARS fear component score ([1]; 3 weeks post infusion): increased; CARS scores (overall) ([1]; approximately 3 weeks after first secretin administration vs pre-secretin): overall decrease; # Autistic Children w/Abnormal FC levels [2]: 1; # Autistic Children w/Equivocal FC levels [2]: 2; # Autistic Children w/normal FC levels [2]: 34; symptoms associated with Autism [3]: ameliorating the symptoms associated with Autism
